Experimental data taken from patent US8772230B2, “Niacin and/or trigonelline as a muscle stimulant” (DSM IP Assets B.V., priority 2009, dated 2014).
Structures can show the parent of a compound that is named as a salt. Where two headings read alike, the source gives them in different places. Marks after values point to notes of the source that are not given here.

Key:
Female C57B1/6 mice [1] = tested on: Female C57B1/6 mice
Procedure: To test the effect of trigonelline in non-trained animals, we performed a maximal endurance test after a treatment period of three weeks.
Female C57B1/6 mice were delivered at a weight of 18-20 g and acclimatized to the facilities for a period of one week. At the beginning of the study the animals were randomized into two groups (10 animals per group). All mice were housed separately and had access to feed and water ad libidum. Animals were treated for three weeks by gavage with trigonelline-hydrochloride at a daily dosage of 300 mg/kg/BW and the control group received vehicle.
For acclimatization, animals were placed on the treadmill for 5 minutes after two weeks. The maximal endurance test was performed two day before the section of the animals.

Female C57B1/6 mice [2] = conditions: three weeks tail suspension
From the text: To extend our in vitro and in vivo results we were also interested in testing the effects of trigonelline during skeletal muscle unloading (atrophy conditions). Therefore we conducted a second in vivo study were the hindlimbs of the animals were unloaded to induce skeletal muscle atrophy.
Tail suspension leads to skeletal muscle atrophy in the unloaded hindlimbs of the animals.
(§1) Female C57B1/6 mice were delivered at a weight of 18-20 g and acclimatized to the facilities for a period of one week. At the beginning of the study the animals were randomized into two groups (10 animals per group).
Thereafter the groups were placed in special cages and the hindlimbs were unloaded (tail suspension) for a duration of three weeks. All mice were housed separately and had access to feed and water ad libidum. Animals were treated for three weeks by gavage with trigonelline-hydrochloride at a daily dosage of 300 mg/kg/BW and the control group received vehicle.

Female C57B1/6 mice [3] = conditions: three weeks
From the text: The gastrocnemius muscle from one hindlimb of the animals was removed to induce compensatory hypertrophy in the plantaris and soleus muscles by multiple mechanisms. This model increases the muscle weight under muscle load/training. It simulates the human condition of an average human who is physically active or an athlete to support skeletal muscle function during exercise.
as §1
The animals were anesthetized and the left hindlimb of the animals was fixed. A small incision was made through the skin over the gastrocnemius muscle. The complete gastrocnemius muscle and its tendons were exposed. Both heads of the gastrocnemius muscle were carefully dissected from the underlying intact muscles and care was taken not to rupture nerves and vessels. The skin was closed with a silk and the animals were returned separately into their cages. […] All animals received an analgesic. Animals were treated for three weeks by gavage with trigonelline-hydrochloride at a daily dosage of 300 mg/kg BW and the control group received vehicle.

[4] = tested on: C2C12 mouse myoblast cells; conditions: 10 μg/ml trigonelline monohydrate, 24 h, vs DMSO control
Procedure: C2C12 cells were seeded on 96 well collagen-I plates (1600 cells/well) in growth medium (Dulbecco's modified Eagle's medium (DMEM) supplemented with 10% FBS, 2 mM L-Glutamine, 1 mM pyruvate, 50 IU/ml penicillin, 50 ug/ml streptavidin) until it reaches 100% confluency, approximately 3 days. […] Final DMSO concentration was standardized to 0.5% in all wells. Cells were cultured at 37° C., with 5% CO2.
Cells were fixed with 3.7% formaldehyde solution (37% formaldehyde diluted in growth medium, sterile filtered before used) for 10 min. at room temperature, and washed twice with 1×DPBS (1× Dulbecco's Phosphate Buffered Saline). After permeabilization with 0.1% TritonX-100 (diluted in 1×DPBS) for 2 min. the samples were blocked with 1×DPBS plus 2% BSA for 1 h. For myocyte labelling, the cells were labelled with 1:20 anti-alpha-myosin heavy chain antibody (MF-20) for 1 hour. The samples were washed with 1×DPBS and fluorescently labelled with secondary antibody (1:250 Alexa 488 IgG antimouse secondary antibody plus 1:2000 Hoechst in 1×DPBS) for 1 h. Finally, the cells were washed twice with 1×DPBS and plates were sealed for imaging on the ArrayScan® HCS Reader.
For image analysis myosin labelled myotubes were quantified on the ArrayScan HCS Reader using BioApplication Morphology Explorer.V2. Myocytes were selected with Object Area larger than 500 and Object Total Intensity greater than 1000.

[5] = 300 mg/kg/BW daily by gavage, three weeks, untrained mice
[6] = 300 mg/kg/BW daily by gavage, computer tomography
[7] = 300 mg/kg BW daily by gavage, computer tomography
[8] = 300 mg/kg BW daily by gavage, non-operated leg

Compound: C[n+]1cccc(C(=O)[O-])c1 [Trigonelline-hydrochloride, trigonelline-hydrochloride]
- Gastrocnemius-Plantaris-Soleus muscle weight (whole leg)/body weight (Female C57B1/6 mice [1]; [5]): 5.41 mg/g
- M. gastrocnemius wet weight (Female C57B1/6 mice [1]; [5]): 100.66 mg
- M. gastrocnemius wet weight/body weight (Female C57B1/6 mice [1]; [5]): 4.57 mg/g
- M. plantaris wet weight (Female C57B1/6 mice [1]; [5]): 12.12 mg
- M. plantaris wet weight/body weight (Female C57B1/6 mice [1]; [5]): 0.55 mg/g
- M. soleus wet weight (Female C57B1/6 mice [1]; [5]): 6.29 mg
- M. soleus wet weight/body weight (Female C57B1/6 mice [1]; [5]): 0.29 mg/g
- Mean running time (Female C57B1/6 mice [1]; 300 mg/kg/BW daily by gavage, three weeks, untrained mice, treadmill): 38.70 min
- Gastrocnemius-Plantaris-Soleus muscle weight (whole leg)/body weight (Female C57B1/6 mice [2]; 300 mg/kg/BW daily by gavage): 4.89* mg/g
- M. gastrocnemius wet weight (Female C57B1/6 mice [2]; 300 mg/kg/BW daily by gavage): 86.01* mg
- M. gastrocnemius wet weight/body weight (Female C57B1/6 mice [2]; 300 mg/kg/BW daily by gavage): 4.16* mg/g
- M. plantaris wet weight (Female C57B1/6 mice [2]; 300 mg/kg/BW daily by gavage): 10.53 mg
- M. plantaris wet weight/body weight (Female C57B1/6 mice [2]; 300 mg/kg/BW daily by gavage): 0.51* mg/g
- M. soleus wet weight (Female C57B1/6 mice [2]; 300 mg/kg/BW daily by gavage): 4.62 mg
- M. soleus wet weight/body weight (Female C57B1/6 mice [2]; 300 mg/kg/BW daily by gavage): 0.22 mg/g
- Muscle cross-sectional area (Female C57B1/6 mice [2]; [6]): 27.8 mm^2
- Total leg cross-sectional area (Female C57B1/6 mice [2]; [6]): 30.4 mm^2
- increase of wet weight of the gastrocnemius muscle (relative to the body weight) (Female C57B1/6 mice [2]; trigonelline-hydrochloride 300 mg/kg/BW daily, vs control (FIG. 3), statistically significant): 9%
- Muscle cross-sectional area - non operated leg (Female C57B1/6 mice [3]; [7]): 32.15 mm^2
- Muscle cross-sectional area - operated leg (Female C57B1/6 mice [3]; [7]): 23.72 mm^2
- Total leg cross-sectional area - non operated leg (Female C57B1/6 mice [3]; [7]): 35.05 mm^2
- Total leg cross-sectional area - operated leg (Female C57B1/6 mice [3]; [7]): 26.79 mm^2
- Gastrocnemius-Plantaris-Soleus muscle weight (whole leg)/body weight (non-operated leg) (Female C57B1/6 mice [3]; [8]): 5.50 mg/g
- M. gastrocnemius wet weight (non-operated leg) (Female C57B1/6 mice [3]; [8]): 99.3 mg
- M. gastrocnemius wet weight/body weight (non-operated leg) (Female C57B1/6 mice [3]; [8]): 4.57 mg/g
- M. plantaris wet weight (non-operated leg) (Female C57B1/6 mice [3]; [8]): 13 mg
- M. plantaris wet weight/body weight (non-operated leg) (Female C57B1/6 mice [3]; [8]): 0.60 mg/g
- M. soleus wet weight (non-operated leg) (Female C57B1/6 mice [3]; [8]): 7.2 mg
- M. soleus wet weight/body weight (non-operated leg) (Female C57B1/6 mice [3]; [8]): 0.33 mg/g

Compound: C[n+]1cccc(C(=O)[O-])c1 [Trigonelline]
- wet weight of the gastrocnemius muscle vs control (in words) (Female C57B1/6 mice [1]; three weeks treatment, untrained mice (FIG. 4)): equal in both groups
- increase of differentiation in C2C12 mouse myoblast cells (number of myocytes) [4]: 36%
- increase of wet weight of the non-operated gastrocnemius muscle (relative to the body weight) (Female C57B1/6 mice [3]; trigonelline-hydrochloride 300 mg/kg BW daily, vs control (FIG. 2)): 7%
